Measurements taken from patent US10709791B2, “Stabilized polymeric carriers for therapeutic agent delivery” (University of Washington, priority 2014, dated 2020).
Square brackets hold non-standard residues; d marks the D form. Peptide text beside a SMILES is read from it. * marks the point of attachment. Methacryloyl = C=C(C)C(=O)*; Ahx = NCCCCCC(=O)O

Tests used:
[1] = molecular target: butyrylcholinesterase (BChE) (Homo sapiens, UniProt P06276); details: buffer with BChE, relative to buffer alone
Experimental: The drug release studies were conducted at 37° C. and free drug detection was quantified using an elution gradient profile at 277 nm.
Recombinant human butyrylcholinesterase (BChE) was obtained from R&D systems.

caspase 3/7 = details: 10 μM, 72 hours
Experimental: Caspase 3/7 activity was measured using a SensoLyte Homogenous AMC Caspase-3/7 Assay Kit (AnaSpec). SKOV3 cells were plated in a black 96-well plate with a clear bottom at a density of 7,000 per well and then treated with polymer (0-10 μM) for 72 hours. Assay reagents were mixed with cell culture medium as per the manufacturer's instructions, incubated for 24 hours, and fluorescence (ex/em=380 nm/500 nm) was measured using a plate reader. Percent caspase 3/7 activity was calculated relative to untreated cell cultures.

Human liver cathepsin B = molecular target: T1, Human liver cathepsin B (Homo sapiens, UniProt P07858); test: Cathepsin B cleavage assay; assay type: biochemical; details: for cathepsin B cleavage of FKFL linker and peptide release: RP-HPLC and MS
T1 construct: purchased Enzo Life Sciences; host or cells: human liver
Experimental: Human liver cathepsin B (Enzo Life Sciences) was activated for 15 minutes in a solution of 0.158 mg/mL cathepsin B, 20 mM DTT, and 10 mM EDTA at 37° C. Peptide or polymer was then solubilized in reaction buffer (10 mM phosphate, 1 mM EDTA, pH 6.6, 37° C.) and added to the enzyme solution for a final concentration of 1.28 μg/mL cathepsin B and […] peptide/polymer. […] Cleavage of the polymers was also visualized by SDS-PAGE on 8-16% Tris-Glycine Gels (Bio-Rad). For protein gel analyses, reactions were conducted at 3× concentration and 160 μg of polymer was loaded per well.

[2] = tested on: SKOV3 human ovarian cancer cells; details: 10 μM, 72 hours
Experimental: Induction of apoptosis was measured with a FITC Annexin V/Dead Cell Apoptosis Kit (Invitrogen) as per the manufacturer's instructions. SKOV3s cells were plated in 6-well plates at a density of 120,000 cells per well and treated with 10 μM polymer solutions for 72 hours. After 72 hours, cells were trypsinized, rinsed in PBS, centrifuged, stained with FITC-annexin V, and analyzed on a BD LSRII flow cytometer.

[3] = human serum, 37° C., at 120 h
Experimental: The drug release studies were conducted at 37° C. and free drug detection was quantified using an elution gradient profile at 277 nm. The studies were conducted with deprotected monomers and polymers.
HPLC was used to quantify drug release by detecting free drug as a function of time normalized to amount of drug present during initial incubation. This in turn was standardized to the total available drug in the system as quantified by dissolving a known amount of polymer in 10% aq. H2SO4 for 48 h at 25° C. Using a Cipro standard curve, the total amount of drug in the polymers was validated against compositional values obtained from ^19F NMR. […]
Absorbance Detector, and Agilent ChemStation software for LC system (Palo Alto, Calif.). […]
Both non-serum (mobile phase:deionized water) and serum standards were subsequently treated with 50% acetonitrile (v/v) to promote protein precipitation. […] Non-serum standards were analysed without the need for centrifugation. […]
The drug release from polymer conjugates was carried out in serum at 37° C. at a polymer concentration of 6 mg/mL. […] Quantification of total Cipro in the polymer conjugates was measured by taking 6 mg/mL of polymer and dissolving it in 10% aq. […] The HPLC with a gradient elution profile was used to quantify amount of drug released using the same instrument parameters set forth for drug standards. […]

[4] = Serum stability of peptide macromonomers and polymers; assay type: in vitro ADME, human; details: 37° C., 0 to 12 hours, MALDI-TOF MS
Experimental: The stability of the peptide (FKFL) linker in the presence of serum proteases was evaluated by incubating the peptide monomers and polymers in human serum and analyzing the degradation products over time. Peptide (40 mM, DMSO) or polymer (4 mM, PBS) was added to human serum to a final peptide/polymer concentration of 400 μM and incubated at 37° C. At various time points, 40 μL aliquots of the mixture were withdraw and 40 μL of acetonitrile was added to precipitate serum proteins and halt protease degradation. Precipitated solutions were centrifuged at 13,000 rpm for 10 min and supernatants were analyzed by MALDI-TOF MS using a Bruker Autoflex II.

Chain of butyrylcholinesterase (BChE) (P06276 29-602): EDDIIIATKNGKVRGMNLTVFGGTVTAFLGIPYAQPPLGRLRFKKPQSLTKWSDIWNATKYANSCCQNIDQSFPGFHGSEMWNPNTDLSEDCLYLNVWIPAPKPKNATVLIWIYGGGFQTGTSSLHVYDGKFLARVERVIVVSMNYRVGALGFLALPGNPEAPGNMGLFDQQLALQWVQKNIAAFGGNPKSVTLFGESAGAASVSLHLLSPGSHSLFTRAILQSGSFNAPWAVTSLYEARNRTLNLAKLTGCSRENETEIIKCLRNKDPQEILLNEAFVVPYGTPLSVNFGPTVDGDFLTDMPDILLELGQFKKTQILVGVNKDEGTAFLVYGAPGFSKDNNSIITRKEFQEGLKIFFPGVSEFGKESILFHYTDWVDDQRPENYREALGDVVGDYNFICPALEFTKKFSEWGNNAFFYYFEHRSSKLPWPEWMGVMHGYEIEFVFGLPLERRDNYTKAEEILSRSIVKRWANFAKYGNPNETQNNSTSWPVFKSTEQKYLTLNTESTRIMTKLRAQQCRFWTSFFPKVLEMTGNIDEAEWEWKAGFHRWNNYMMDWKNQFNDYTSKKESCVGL

| Compound | effect of added BChE on ester hydrolysis [1] | caspase 3/7 activity relative to untreated cells (caspase 3/7) | cathepsin B cleavage of FKFL linker and peptide release (Human liver cathepsin B) | cells staining positive for annexin V [2] [%] | also measured |
| --- | --- | --- | --- | --- | --- |
| ciprofloxacin-(phenol)methacrylate [CPM] | increases hydrolysis |  |  |  |  |
| poly[(DEAEMA)-co-(BMA)]-b-[(PEGMA300)-c-(MaAhxFKFLAhxBIM)] [PolBIM] |  | more than 8 fold | release the desired (2980 Da) peptide product | 87 |  |
| C=C(C)C(=O)OCCOC(=O)c1cn(C2CC2)c2cc(N3CCN(C(=O)OC(C)(C)C)CC3)c(F)cc2c1=O [HBC, (hydroxyethyl)methacrylate-boc-ciprofloxacin] | increases hydrolysis |  |  |  | drug release [3]: ~50% |
| C=C(C)C(=O)NCCCCCC(=O)N[C@@H](Cc1ccccc1)C(=O)N[C@@H](CCCCN)C(=O)N[C@@H](Cc1ccccc1)C(=O)N[C@@H](CC(C)C)C(=O)NCCCCCC(=O)N[C@@H](CC(C)C)C(=O)N[C@@H](CCCNC(=N)N)C(=O)N[C@@H](CCSC)C(=O)N[C@@H](CCCNC(=N)N)C(=O)N[C@@H](CCC(=O)O)C(=O)N[C@H](C(=O)N[C@H](C(=O)N[C@@H](CC(=O)O)C(=O)N[C@@H](C)C(=O)N[C@@H](Cc1ccc(O)cc1)C(=O)N[C@@H](CCC(=O)O)C(=O)N[C@@H](CCCNC(=N)N)C(=O)N[C@@H](CCC(N)=O)C(=O)N[C@@H](Cc1ccccc1)C(=O)NCC(=O)N[C@@H](CCC(=O)O)C(=O)N1CCC[C@H]1C(=O)N[C@@H](CC(N)=O)C(=O)N[C@H](C(=O)N[C@@H](Cc1c[nH]c2ccccc12)C(=O)N[C@@H](C)C(N)=O)[C@@H](C)CC)[C@@H](C)CC)[C@@H](C)CC [MaAhxFKFLAhxScrBIM] ({Methacryloyl-Ahx}-FKFL[Ahx]LRMREIIDAYERQFGEPNIWA-NH2) |  |  |  |  | stability of the FKFL linker in human serum [4]: intact peptide monomer (3437 Da) was detectable after 12 hours; cleavage at the FKFL linker (Human liver cathepsin B; by 20 minutes): 100% |
| poly[(DEAEMA)-co-(BMA)]-b-[(PEGMA300)-c-(MaAhxFKFLAhxScrBIM)] [PolScrBIM] |  | no change | release the desired (2980 Da) peptide product | 15 |  |
